Laboratory results published in patent publication US9840500B2, “Compounds as dual inhibitors of histone methyltransferases and DNA methyltransferases” (FUNDACIÓN PARA LA INVESTIGACIÓN MÉDICA APLICADA, priority 2014, dated 2017).
Counter-ions that a name gives are not always drawn.

Experiments:
DNMT1 = DNMT1 (Homo sapiens, UniProt P26358); experiment: DNMT1 enzyme activity assay (TR-FRET, EPIgeneous methyltransferase assay); type: biochemical
Method: The biochemical assay to measure DNMT1 enzyme activity relies on time-resolved fluorescence energy transfer (TR-FRET) between lumi4-Tb (donor) and d2 (acceptor) using the EPIgeneous methyltransferase assay (CisBio Cat#62SAHPEB). […] TR-FRET signal is inversely proportional to the concentration of SAH, product of DNMT1 enzyme activity, in the sample.
The human DNMT1 was obtained from Reaction Biology Corp. (Cat# DMT-21-124). […] Final percentage of DMSO was 0.5%. • 2 μl of 1 nM DNMT1 enzyme diluted in assay buffer.
(§1) For each well, fluorescence was measured at 620 nm and 665 nm. A ratio (665 nm/620 nm) was then calculated in order to minimize medium interferences. Positive control was obtained in the presence of the vehicle of the compounds. Negative control was obtained in the absence of G9a enzyme activity. Calculated IC50 values were determined using GraphPrism using 4-parameters inhibition curve.

human G9a enzyme = target: T1, human G9a enzyme (Homo sapiens, UniProt Q96KQ7); experiment: G9a enzyme activity assay (TR-FRET); type: biochemical
T1 sequence (Q96KQ7 1-1210): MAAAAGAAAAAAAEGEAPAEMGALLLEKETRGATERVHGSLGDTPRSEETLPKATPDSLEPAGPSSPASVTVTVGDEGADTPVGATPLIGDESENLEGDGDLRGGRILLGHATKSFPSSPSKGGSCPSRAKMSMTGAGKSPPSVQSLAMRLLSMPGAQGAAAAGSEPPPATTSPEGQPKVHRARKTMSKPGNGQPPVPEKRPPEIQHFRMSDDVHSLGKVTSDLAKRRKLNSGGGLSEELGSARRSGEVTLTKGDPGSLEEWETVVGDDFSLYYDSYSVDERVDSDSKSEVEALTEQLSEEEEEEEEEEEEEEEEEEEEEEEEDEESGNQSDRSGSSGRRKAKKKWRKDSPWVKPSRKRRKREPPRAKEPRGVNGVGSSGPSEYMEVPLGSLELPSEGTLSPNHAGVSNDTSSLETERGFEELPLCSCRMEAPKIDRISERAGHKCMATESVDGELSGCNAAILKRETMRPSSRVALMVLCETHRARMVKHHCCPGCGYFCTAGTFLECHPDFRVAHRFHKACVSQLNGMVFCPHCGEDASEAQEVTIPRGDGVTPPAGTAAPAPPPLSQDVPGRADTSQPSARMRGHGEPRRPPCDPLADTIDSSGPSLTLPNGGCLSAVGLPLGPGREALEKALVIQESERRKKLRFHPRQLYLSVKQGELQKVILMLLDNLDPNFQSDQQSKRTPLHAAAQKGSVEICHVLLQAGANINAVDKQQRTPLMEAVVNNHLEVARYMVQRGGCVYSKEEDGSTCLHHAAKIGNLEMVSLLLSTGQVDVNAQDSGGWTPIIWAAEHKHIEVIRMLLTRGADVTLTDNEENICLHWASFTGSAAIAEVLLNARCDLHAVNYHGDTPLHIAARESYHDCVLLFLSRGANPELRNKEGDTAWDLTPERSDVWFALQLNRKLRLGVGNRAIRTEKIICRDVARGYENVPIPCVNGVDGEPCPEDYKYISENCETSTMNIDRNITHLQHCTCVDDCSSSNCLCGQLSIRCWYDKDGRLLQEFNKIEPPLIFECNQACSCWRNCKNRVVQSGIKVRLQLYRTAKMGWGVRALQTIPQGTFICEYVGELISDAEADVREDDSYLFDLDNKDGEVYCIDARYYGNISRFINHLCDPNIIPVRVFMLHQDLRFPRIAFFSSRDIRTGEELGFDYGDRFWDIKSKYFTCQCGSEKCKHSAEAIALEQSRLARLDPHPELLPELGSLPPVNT
Method: The biochemical assay to measure G9a enzyme activity relies on time-resolved fluorescence energy transfer (TR-FRET) between europium cryptate (donor) and XL665 (acceptor). […] The human G9a enzyme expressed in a baculovirus infected Sf9 cell expression system was obtained from BPS Biosciences (Cat. #51001). […] Final percentage of DMSO was 0.5%. • 2 μl of 1 nM G9a enzyme diluted in assay buffer. […] Final concentration 150 nM. • Then, add 5 μl of streptavidin XL665 beads. Final concentration of 16 μM. • Read the plate after 1 hour of incubation at room temperature.
as §1

DNMT1, sequence (P26358 whole entry): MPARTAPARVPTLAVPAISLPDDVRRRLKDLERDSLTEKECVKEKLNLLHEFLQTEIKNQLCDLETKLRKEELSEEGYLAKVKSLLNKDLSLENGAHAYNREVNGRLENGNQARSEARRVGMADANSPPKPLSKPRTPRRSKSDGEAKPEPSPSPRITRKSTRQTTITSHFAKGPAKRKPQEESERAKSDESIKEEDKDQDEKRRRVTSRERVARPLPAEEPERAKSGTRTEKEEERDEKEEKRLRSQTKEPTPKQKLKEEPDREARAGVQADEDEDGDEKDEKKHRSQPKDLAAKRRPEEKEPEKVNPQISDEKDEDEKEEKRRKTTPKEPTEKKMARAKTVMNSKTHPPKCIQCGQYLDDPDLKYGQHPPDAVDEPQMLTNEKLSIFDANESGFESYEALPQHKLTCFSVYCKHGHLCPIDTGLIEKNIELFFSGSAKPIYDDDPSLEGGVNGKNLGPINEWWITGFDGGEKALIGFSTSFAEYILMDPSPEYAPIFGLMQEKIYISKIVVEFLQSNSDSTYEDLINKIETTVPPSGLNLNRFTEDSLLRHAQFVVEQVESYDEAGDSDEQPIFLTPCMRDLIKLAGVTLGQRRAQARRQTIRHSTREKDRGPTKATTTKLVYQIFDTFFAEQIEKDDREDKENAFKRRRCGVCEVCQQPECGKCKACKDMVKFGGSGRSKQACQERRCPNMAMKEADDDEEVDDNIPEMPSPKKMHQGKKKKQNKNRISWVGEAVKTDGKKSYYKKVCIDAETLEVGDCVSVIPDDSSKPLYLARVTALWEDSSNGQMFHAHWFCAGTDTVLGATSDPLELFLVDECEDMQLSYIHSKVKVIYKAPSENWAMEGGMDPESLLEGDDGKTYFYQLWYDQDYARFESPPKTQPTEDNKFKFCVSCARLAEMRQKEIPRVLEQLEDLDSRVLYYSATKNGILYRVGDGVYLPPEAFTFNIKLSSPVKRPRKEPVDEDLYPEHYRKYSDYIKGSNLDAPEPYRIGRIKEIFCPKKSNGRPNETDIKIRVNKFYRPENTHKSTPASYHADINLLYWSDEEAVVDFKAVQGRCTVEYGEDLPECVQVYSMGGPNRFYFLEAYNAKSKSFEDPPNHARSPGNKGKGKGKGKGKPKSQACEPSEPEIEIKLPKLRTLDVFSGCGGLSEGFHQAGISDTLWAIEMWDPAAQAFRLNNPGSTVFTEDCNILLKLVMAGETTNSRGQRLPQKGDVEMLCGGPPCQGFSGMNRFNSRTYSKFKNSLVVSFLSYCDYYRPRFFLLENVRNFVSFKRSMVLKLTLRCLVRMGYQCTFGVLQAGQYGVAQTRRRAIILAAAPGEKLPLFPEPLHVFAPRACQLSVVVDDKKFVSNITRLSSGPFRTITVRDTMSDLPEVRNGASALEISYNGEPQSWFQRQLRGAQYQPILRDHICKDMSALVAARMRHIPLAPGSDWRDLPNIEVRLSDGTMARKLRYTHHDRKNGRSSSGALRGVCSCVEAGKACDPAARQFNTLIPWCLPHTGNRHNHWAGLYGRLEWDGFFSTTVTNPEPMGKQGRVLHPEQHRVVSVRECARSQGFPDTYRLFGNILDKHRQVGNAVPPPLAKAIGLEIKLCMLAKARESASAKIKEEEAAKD

Row | Structure (SMILES) | IC50 (DNMT1) | IC50 (human G9a enzyme)
1 | COc1cc(NC2CCN(C)CC2)c2cc(OC)c(OCCCN3CCCC3)cc2n1 [Compound 2-01] | 1 to 10 µM | 0.1 to 0.5 µM
2 | COc1cc2c(NC3CCN(C)CC3)cc(C)nc2cc1OCCCN1CCCC1 [Compound 3-23] | 0.5 to 1 µM | < 0.1 µM
3 | COCCNc1cc(-c2ccc(C)o2)nc2cc(OCCCN3CCCC3)c(OC)cc12 [Compound 3-12] | 1 to 10 µM | 0.1 to 0.5 µM
4 | COc1cc2c(NC3CCN(C)CC3)cc(-c3ccc(C)o3)nc2cc1OC1CCN(C(=O)OC(C)(C)C)CC1 [Compound 19-03] | 1 to 10 µM | 1 to 10 µM
5 | COc1cc2c(NCCC(F)(F)F)cc(-c3ccc(C)o3)nc2cc1OCCCN1CCCC1 [Compound 3-11] | 1 to 10 µM | 0.1 to 0.5 µM
6 | COc1cc2c(NC3CCN(C)CC3)cc(C3CCOCC3)nc2cc1OCCCN1CCCC1 [Compound 7-02, 6-methoxy-N-(1-methyl-4-piperidyl)-7-(3-pyrrolidin-1-ylpropoxy)-2-tetrahydropyran-4-yl-quinolin-4-amine; 2,2,2-trifluoroacetic acid] | 1 to 10 µM | < 0.1 µM
7 | COc1cc2c(NC3CCN(C)CC3)cc(N3CCN(C)CC3)nc2cc1OCCCN1CCCC1 [Compound 1-02] | 0.5 to 1 µM | < 0.1 µM
8 | Cc1ccc(-c2cc(NC3CCN(C)CC3)c3cc(OCC(F)(F)F)c(OCCCN4CCCC4)cc3n2)o1 [Compound 13-01, 2-(5-methyl-2-furyl)-N-(1-methyl-4-piperidyl)-7-(3-pyrrolidin-1-ylpropoxy)-6-(2,2,2-trifluoroethoxy)quinolin-4-amine; 2,2,2-trifluoroacetic acid] | 0.5 to 1 µM | 0.5 to 1 µM
9 | COc1cc2c(NC3CCC(C)(O)CC3)cc(-c3ccc(C)o3)nc2cc1OCCCN1CCCC1 (stereo not shown) [Compound 3-45] | 1 to 10 µM | 0.1 to 0.5 µM
10 | COc1cc2c(NC3CCN(C)CC3)cc(-c3ccn(C)n3)nc2cc1OCCCN1CCCC1 [Compound 3-33] | 1 to 10 µM | < 0.1 µM
11 | COc1cc2c(NC3CCCC3)cc(-c3ccc(C)[nH]3)nc2cc1OCCCN1CCCC1 [Compound 3-38] | 0.1 to 0.5 µM | < 0.1 µM
12 | COc1cc2c(NC3CC3)cc(-c3ccc(C)[nH]3)nc2cc1OCC1CCNCC1 [Compound 11-08] | 1 to 10 µM | 1 to 10 µM
13 | CCc1ccc(-c2cc(NC3CCN(C)CC3)c3cc(OC)c(OCC4CCNCC4)cc3n2)o1 [Compound 11-03] | 0.5 to 1 µM | 1 to 10 µM
14 | COc1cc2c(NC3CCN(C)CC3)cc(-c3ccc(CO)o3)nc2cc1OCCCN1CCCC1 [Compound 9-01, [5-[6-methoxy-4-[(1-methyl-4-piperidyl)amino]-7-(3-pyrrolidin-1-ylpropoxy)-2-quinolyl]-2-furyl]methanol; 2,2,2-trifluoroacetic acid] | 0.5 to 1 µM | < 0.1 µM
15 | COc1cc2c(NC3CCOCC3)cc(-c3ccc(C)o3)nc2cc1OCCCN1CCCC1 [Compound 3-16] | 1 to 10 µM | 0.1 to 0.5 µM
16 | COc1cc2c(NC3CCN(C)CC3)cc(-c3cc(C)oc3C)nc2cc1OCCCN1CCCC1 [Compound 3-35] | 0.5 to 1 µM | < 0.1 µM
17 | COc1cc2c(NC3CCN(C)CC3)cc(-c3cc[nH]c(=O)c3)nc2cc1OCCCN1CCCC1 [Compound 3-37] | 1 to 10 µM | 0.1 to 0.5 µM
18 | COc1cc2c(NC3CCN(C)CC3)cc(-c3ccc(CN(C)C)o3)nc2cc1OCCCN1CCCC1 [Compound 8-01, 2-[5-[(dimethylamino)methyl]-2-furyl]-6-methoxy-N-(1-methyl-4-piperidyl)-7-(3-pyrrolidin-1-ylpropoxy)quinolin-4-amine; 2,2,2-trifluoroacetic acid] | 1 to 10 µM | 0.1 to 0.5 µM

Row | Structure (SMILES) | IC50 (DNMT1) | IC50 (human G9a enzyme)
19 | COc1cc2c(NC3CCN(C)CC3)cc(C3=CCOCC3)nc2cc1OCCCN1CCCC1 [Compound 6-02] | 0.5 to 1 µM | < 0.1 µM
20 | COc1cc2c(NC3CCNCC3)cc(C3CCCCC3)nc2cc1OCCCN1CCCC1 [Compound 7-04, 2-cyclohexyl-6-methoxy-N-(4-piperidyl)-7-(3-pyrrolidin-1-ylpropoxy)quinolin-4-amine; 2,2,2-trifluoroacetic acid] | 0.5 to 1 µM | < 0.1 µM
21 | CCNCc1ccc(-c2cc(NC3CCN(C)CC3)c3cc(OC)c(OCCCN4CCCC4)cc3n2)o1 [Compound 8-02] | 0.5 to 1 µM | < 0.1 µM
22 | COc1cc2c(NC3CC4(CCNCC4)C3)cc(-c3ccc(C)o3)nc2cc1OCC1CCNCC1 [Compound 11-10] | 0.1 to 0.5 µM | 1 to 10 µM
23 | COc1cc2c(NC3CCN(C)C(=O)C3)cc(-c3ccc(C)[nH]3)nc2cc1OCC1CCNCC1 (stereo not shown) [Compound 11-11] | 0.5 to 1 µM | 0.5 to 1 µM
24 | COc1cc2c(NCC3CCN(C)C(=O)C3)cc(-c3ccc(C)[nH]3)nc2cc1OCC1CCNCC1 (stereo not shown) [Compound 11-07] | 0.5 to 1 µM | 0.5 to 1 µM
25 | COc1cc2c(NC3CC4(CCNCC4)C3)cc(-c3ccc(C)[nH]3)nc2cc1OCC1CCNCC1 [Compound 11-09] | 0.1 to 0.5 µM | 0.1 to 0.5 µM
26 | COc1cc2c(NC3CCN(C)CC3)cc(C3CCCCC3)nc2cc1OCCCN1CCCC1 [Compound 7-01, 2-cyclohexyl-6-methoxy-N-(1-methyl-4-piperidyl)-7-(3-pyrrolidin-1-ylpropoxy)quinolin-4-amine; 2,2,2-trifluoroacetic acid] | 0.1 to 0.5 µM | < 0.1 µM
27 | COc1cc2c(NC3CCN(C)CC3)cc(-c3ccc(C#N)o3)nc2cc1OCCCN1CCCC1 [Compound 10-01, 5-[6-methoxy-4-[(1-methyl-4-piperidyl)-amino]-7-(3-pyrrolidin-1-ylpropoxy)-2-quinolyl]furan-2-carbonitrile; 2,2,2-trifluoroacetic acid] | 1 to 10 µM | 0.1 to 0.5 µM
28 | COc1cc2c(NCC3CCN(C)CC3)cc(-c3ccc(C)[nH]3)nc2cc1OCC1CCNCC1 [Compound 11-06] | 0.1 to 0.5 µM | 0.1 to 0.5 µM
29 | COc1cc2c(NC3CCN(C)C(=O)C3)cc(-c3ccc(C)[nH]3)nc2cc1OCC1CCN(C)CC1 (stereo not shown) [Compound 12-04] | 0.5 to 1 µM | 1 to 10 µM
30 | COc1cc2c(NC3CCN(C)CC3)cc(-c3ccccc3C)nc2cc1OCCCN1CCCC1 [Compound 3-34] | 1 to 10 µM | < 0.1 µM
31 | COc1cc2c(NC3CC4(CCNCC4)C3)cc(-c3ccc(C)[nH]3)nc2cc1OCCCN1CCCC1 [Compound 4-02, N-(7-azaspiro[3.5]nonan-2-yl)-6-methoxy-2-(5-methyl-1H-pyrrol-2-yl)-7-(3-pyrrolidin-1-ylpropoxy)quinolin-4 amine; hydrochloride] | 1 to 10 µM | < 0.1 µM
32 | COc1cc2c(NC3CCNC(=O)C3)cc(-c3ccc(C)o3)nc2cc1OCCCN1CCCC1 (stereo not shown) [Compound 3-18] | 1 to 10 µM | 0.1 to 0.5 µM
33 | COc1cc2c(NC3CCN(C)CC3)cc(-c3cccnc3)nc2cc1OCCCN1CCCC1 [Compound 3-30] | 1 to 10 µM | < 0.1 µM
34 | COc1cc2c(NC3CCN(C)CC3)cc(-c3ccc(-c4ccccc4)o3)nc2cc1OCCCN1CCCC1 [Compound 3-32] | 1 to 10 µM | 1 to 10 µM
35 | CCc1ccc(-c2cc(NC3CC4(CCN(C5CC5)CC4)C3)c3cc(OC)c(OCCCN4CCCC4)cc3n2)o1 [Compound 19-01, N-(7-cyclopropyl-7-azaspiro[3.5]nonan-2-yl)-2-(5-ethyl-2-furyl)-6-methoxy-7-(3-pyrrolidin-1-ylpropoxy)quinolin-4-amine; 2,2,2-trifluoroacetic acid] | 0.5 to 1 µM | 1 to 10 µM
